From US20230105212A1, “BIPHENYL DERIVATIVE INHIBITOR, PREPARATION METHOD THEREFOR AND USE THEREOF” (SHANGHAI HANSOH BIOMEDICAL CO., LTD., priority 2020, published 2023)
Where two headings read alike, the source gives them in different places.

Columns and labels:
[1] = Pharmacokinetics test in Balb/C mice; type: in vivo; settings: male, mouse, po, p.o. 5 mg/kg, plasma; for AUC(0-t): read-out: Curve area AUC0−t; for Cmax: read-out: Drug concentration in plasma Cmax; for Tmax: read-out: Peak time tmax; for MRT inf: read-out: Average residence time MRT0−∞; for half-life: read-out: Half life t1/2 (converted)
Description: Test Embodiment 6. Pharmacokinetics Test in Balb/C Mice
Taking Balb/C mice as the test animals, the pharmacokinetic behavior in the plasma of mice of the following compound embodiments was studied when orally administered at a dose of 5 mg/kg.
Balb/C Mouse 6/embodiment, male, Shanghai Jisijie Laboratory Animal Co., Ltd., animal production license number (SCXK (Shanghai) 2013-0006 No. 311620400001794).
0.5% HPMC (1% Tween 80), dissolved by sonication, to prepare a clear solution or a homogeneous suspension.
Balb/C mice, male; p.o. after overnight fasting, respectively, at a dose of 5 mg/kg, administered in a volume of 10 mL/kg.
Before and after administration of mice, at 0, 0.5, 1, 2, 4, 6, 8 and 24 hours, 0.1 mL of blood was collected from the orbit, placed in an EDTA-K2 test tube, and centrifuged at 6000 rpm at 4° C. for 6 min to separate the plasma, stored at −80° C.
1) 40 μL of plasma samples were added to 160 μL of acetonitrile for precipitation, mixed and centrifuged at 3500×g for 5 to 20 minutes.
2) 100 μL of the supernatant solution after treatment was taken for LC/MS/MS to analyze the concentration of the compounds to be tested.
2.6 Liquid Phase Analysis • Liquid phase condition: Shimadzu LC-20AD pump • MS conditions: AB Sciex API 4000 Mass Spectrometer • Chromatographic column: phenomenex Gemiu 5 μm C18 50×4.6 mm • Mobile phase: A solution was aqueous 0.1% formic acid solution, B solution was acetonitrile • Flow rate: 0.8 mL/min • Elution time: 0 to 4.0 minutes, the eluent was as follows:
The main parameters of pharmacokinetics were calculated with WinNonlin 8.2, and the results of the mice pharmacokinetic experiments were shown in the following table: […]

human PD-L1 protein = molecular target: T1, human PD-L1 protein (Homo sapiens, UniProt Q9NZQ7); test: Thermal shift: melting temperature of PD-L1 protein; type: binding; settings: read-out: ΔTm (° C.)
T1 construct: purchased Acro Biosystems PD1-H5229
T1 sequence (Q9NZQ7 19-238 limits assumed): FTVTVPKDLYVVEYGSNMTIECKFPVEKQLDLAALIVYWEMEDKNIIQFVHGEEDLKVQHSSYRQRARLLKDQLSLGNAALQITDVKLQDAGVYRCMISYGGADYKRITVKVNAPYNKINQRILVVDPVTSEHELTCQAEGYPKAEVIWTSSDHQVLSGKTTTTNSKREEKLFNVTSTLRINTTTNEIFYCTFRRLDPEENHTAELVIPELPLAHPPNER
Procedure, shortened: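 Human PD-L1 at 2 μM final was tested in […], 150 mM NaCl with SYPRO Orange, heated 25→95 °C at 0.03 °C/s in a PCR melt-curve run. Tm was taken per treatment; ΔTm is the shift relative to DMSO vehicle.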

human PD-1/PD-L1 binding = molecular target: T2, human PD-1/PD-L1 binding (Homo sapiens, UniProt Q9NZQ7); test: Inhibition of human PD-1/PD-L1 binding (TR-FRET/HTRF)
T2 construct: PD-L1-His protein (19 to 238 amino acids) (Abcam #ab167713); purchased Abcam (PD-L1-His); R&D (PD-1-Fc) ab167713; 1086-PD
T2 sequence (Q9NZQ7 19-238): as the sequence (Q9NZQ7 19-238 limits assumed) above
Procedure, shortened: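 PD-L1-His (aa 19–238, diluted to 10 nM) and PD-1-Fc (aa 25–167, diluted to 20 nM) incubated with compounds (10 μM or 1 μM top, 3-fold, 11 doses) 60 min at room temperature, then anti-6HIS Eu cryptate/anti-human IgG-XL665 added for 3 h RT or overnight 4 °C. HTRF 665/620 nm ratio gave inhibition and IC50.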

[2] = compound 10 μM, PD-L1 protein 2 μM, Tm minus DMSO vehicle control
[3] = TR-FRET, PD-L1-His and PD-1-Fc, read-out: PD-1/PD-L1 binding IC50

Row | Structure (SMILES) | AUC(0-t) [1] [µg·h/mL] | Cmax [1] [µg/mL] | Tmax [1] [h] | ΔTm at 10 µM (human PD-L1 protein; [2]) [°C] | IC50 (human PD-1/PD-L1 binding; [3]) [nM] | MRT inf [1] [h] | half-life [1] [h] | ΔTm at 10 µM (human PD-L1 protein) [°C] | IC50 (human PD-1/PD-L1 binding) [nM]
1 | COc1nc(-c2cccc(-c3cccc(NC(=O)c4nc5c(n4C)CCN(C)C5)c3Cl)c2Cl)ccc1CN[C@H]1CCOC[C@@H]1O (relative stereo) [Embodiment 175, N-(2,2′-Dichloro-3′-(5-((((3,4-trans)-3-hydroxytetrahydro-2H-pyran-4-yl)amino)methyl)-6-methoxypyridin-2-yl)-[1,1′-biphenyl]-3-yl)-1,5-dimethyl-4,5,6,7-tetrahydro-1H-imidazo[4,5-c]pyridine-2-carboxamide] | 1.63 | 0.132 | 6 | 18 | 4.2 | – | – | – | –
2 | CNC(=O)CNCc1cnc(C(=O)Nc2cccc(-c3cccc(NC(=O)c4nc5c(n4C)CCN(C)C5)c3Cl)c2C)cc1OC [Embodiment 95, N-(2-Chloro-3′-(4-methoxy-5-(((2-(methylamino)-2-carbonylethyl)amino)methyl)picolinamido)-2′-methyl-[1,1′-biphenyl]-3-yl)-1,5-dimethyl-4,5,6,7-tetrahydro-1H-imidazo[4,5-c]pyridine-2-carboxamide] | – | – | – | 14.4 | 2.4 | – | – | – | –
3 | COc1nc(-c2cccc(-c3cccc(NC(=O)c4nc5c(n4C)CCN(C)C5)c3Cl)c2Cl)ccc1CNC1COC1 [Embodiment 114, N-(2,2′-Dichloro-3′-(6-methoxy-5-((oxetan-3-ylamino)methyl)pyridin-2-yl)-[1,1′-biphenyl]-3-yl)-1,5-dimethyl-4,5,6,7-tetrahydro-1H-imidazo[4,5-c]pyridine-2-carboxamide] | 0.596 | 0.048 | 2 | 17.9 | 4.3 | 11.3 | 9 | – | –
4 | COc1nc(-c2cccc(-c3cccc(NC(=O)c4nc5c(n4C)CCN(C)C5)c3Cl)c2Cl)ccc1CN1CC(F)C1 [Embodiment 120, N-(2,2′-Dichloro-3′-(5-((3-fluoroazetidin-1-yl)methyl)-6-methoxypyridin-2-yl)-[1,1′-biphenyl]-3-yl)-1,5-dimethyl-4,5,6,7-tetrahydro-1H-imidazo[4,5-c]pyridine-2-carboxamide] | 0.5 | 0.034 | 2 | – | 7.4 | 17 | 12 | 15.8 | –
5 | COc1nc(-c2cccc(-c3cccc(NC(=O)c4nc5c(n4C)CCN(C)C5)c3Cl)c2Cl)ccc1CN1CC2(C1)CN(C(C)=O)C2 [Embodiment 123, N-(3′-(5-((6-Acetyl-2,6-diazaspiro[3.3]heptan-2-yl)methyl)-6-methoxypyridin-2-yl)-2,2′-dichloro-[1,1′-biphenyl]-3-yl)-1,5-dimethyl-4,5,6,7-tetrahydro-1H-imidazo[4,5-c]pyridine-2-carboxamide] | 0.778 | 0.059 | 4 | – | 1.6 | 12.8 | 6.7 | 16.5 | –
6 | COc1nc(-c2cccc(-c3cccc(NC(=O)c4nc5c(n4C)CCN(C)C5)c3Cl)c2Cl)ccc1CN1CC2(COC2)C1 [Embodiment 124, N-(3′-(5-((2-Oxa-6-azaspiro[3.3]heptan-6-yl)methyl)-6-methoxypyridin-2-yl)-2,2′-dichloro-[1,1′-biphenyl]-3-yl)-1,5-dimethyl-4,5,6,7-tetrahydro-1H-imidazo[4,5-c]pyridine-2-carboxamide] | 0.523 | 0.036 | 4 | 16.2 | 3.8 | 25 | 20 | – | –
7 | COc1nc(-c2cccc(-c3cccc(NC(=O)c4nc5c(n4C)CCN(C)C5)c3Cl)c2Cl)ccc1CN1CC2(CCC(=O)N2)C1 [Embodiment 126, N-(2,2′-Dichloro-3′-(6-methoxy-5-((6-carbonyl-2,5-diazaspiro[3.4]octan-2-yl)methyl)pyridin-2-yl)-[1,1′-biphenyl]-3-yl)-1,5-dimethyl-4,5,6,7-tetrahydro-1H-imidazo[4,5-c]pyridine-2-carboxamide] | 0.677 | 0.054 | 2 | 17.1 | 2 | 12.3 | 8.4 | – | –
8 | COc1nc(-c2cccc(-c3cccc(NC(=O)c4nc5c(n4C)CCN(C)C5)c3Cl)c2Cl)ccc1CNC[C@H](C)O [Embodiment 127, (S)—N-(2,2′-Dichloro-3′-(5-(((2-hydroxypropyl)amino)methyl)-6-methoxypyridin-2-yl)-[1,1′-biphenyl]-3-yl)-1,5-dimethyl-4,5,6,7-tetrahydro-1H-imidazo[4,5-c]pyridine-2-carboxamide] | 0.743 | 0.037 | 6 | 18.7 | 4.6 | 69 | 47 | – | –
9 | COc1nc(-c2cccc(-c3cccc(NC(=O)c4nc5c(n4C)CCN(C)C5)c3Cl)c2Cl)ccc1CN1CC(O)(CO)C1 [Embodiment 173, N-(2,2′-Dichloro-3′-(5-((3-hydroxy-3-(hydroxymethyl)azetidin-1-yl)methyl)-6-methoxypyridin-2-yl)-[1,1-biphenyl]-3-yl)-1,5-dimethyl-4,5,6,7-tetrahydro-1H-imidazo[4,5-c]pyridine-2-carboxamide] | – | – | – | 13.5 | 3 | – | – | – | –
10 | COc1nc(-c2cccc(-c3cccc(NC(=O)c4nc5c(n4C)CCN(C)C5)c3Cl)c2Cl)ccc1CNC(CO)CO [Embodiment 174, N-(2,2′-Dichloro-3′-(5-(((1,3-dihydroxypropan-2-yl)amino)methyl)-6-methoxypyridin-2-yl)-[1,1′-biphenyl]-3-yl)-1,5-dimethyl-4,5,6,7-tetrahydro-1H-imidazo[4,5-c]pyridine-2-carboxamide] | – | – | – | 16.6 | 3 | – | – | – | –
11 | CCC(=O)N1CC2(CN(Cc3ccc(-c4cccc(-c5cccc(NC(=O)c6nc7c(n6C)CCN(C)C7)c5Cl)c4Cl)nc3OC)C2)C1 [Embodiment 188, N-(2,2′-Dichloro-3′-(6-methoxy-5-((6-propionyl-2,6-diazaspiro[3.3]heptan-2-yl)methyl)pyridin-2-yl)-[1,1′-biphenyl]-3-yl)-1,5-dimethyl-4,5,6,7-tetrahydro-1H-imidazo[4,5-c]pyridine-2-carboxamide] | – | – | – | – | – | – | – | 16.5 | 6.3
12 | COc1nc(-c2cccc(-c3cccc(NC(=O)c4nc5c(n4C)CCN(C)C5)c3Cl)c2Cl)ccc1CN1CC2(C1)CN(S(C)(=O)=O)C2 [Embodiment 192] | – | – | – | 14 | 9 | – | – | – | –
13 | COc1nc(-c2cccc(-c3cccc(NC(=O)c4nc5c(n4C)CCN(C)C5)c3Cl)c2Cl)cnc1CN1CC(NC(C)=O)C1 [Embodiment 218, N-(3′-(5-((3-Acetylaminoazetidin-1-yl)methyl)-6-methoxypyrazin-2-yl)-2,2′-dichloro-[1,1′-biphenyl]-3-yl)-1,5-dimethyl-4,5,6,7-tetrahydro-1H-imidazo[4,5-c]pyridine-2-carboxamide] | – | – | – | 13.7 | 3.7 | – | – | – | –
14 | COc1nc(-c2cccc(-c3cccc(NC(=O)c4nc5c(n4C)CCN(C)C5)c3Cl)c2Cl)ncc1CN1CC(CNC(C)=O)C1 [Embodiment 225, N-(3′-(5-((3-(Acetylaminomethyl)azetidin-1-yl)methyl)-4-methoxypyrimidin-2-yl)-2,2′-dichloro-[1,1′-biphenyl]-3-yl)-1,5-dimethyl-4,5,6,7-tetrahydro-1H-imidazo[4,5-c]pyridine-2-carboxamide] | 1.92 | – | 2 | – | 4.5 | 10.6 | 9.2 | – | –
